# Test results reported in patent publication US20260191782A1, “URIDINE TRIACETATE AMORPHOUS FORMULATION AND USES THEREOF” (PHARMA CINQ, LLC, priority 2022, published 2026).
# Assays:
# [1] = tested on: primary mitochondrial disease; assay: Treatment of primary mitochondrial disease (patient example); assay type: in vivo, human; conditions: PMD patient, dose increased to 100 mg/kg/dose twice daily
# From the text: A patient is diagnosed with primary mitochondrial disease by identification of pathogenic mutations known to impair mitochondrial oxidative phosphorylation (by whole exome sequencing and comparison with a database of known pathogenic genetic variants) combined with symptoms consistent with PMD, in this case including recurrent epileptic seizures, developmental delays, proximal renal tubular acidosis requiring bicarbonate supplementation, and exercise intolerance with early onset of fatigue during exertion. […] Within about one week, seizure frequency declines by more than 50%, and daily bicarbonate requirements to compensate for excessive urinary excretion due to proximal tubular acidosis is reduced from 200 milliEquivalents per day to less than 25. With the therapeutic goal of maintaining plasma bicarbonate above 20 mEq/liter. After several additional weeks, endurance during exercise improves, as measured by timed walking distance and standard clinical measures of subjective fatigue.
# [2] = cited from earlier work
structure (smiles),measurement,setting,value
"CC(=O)OC[C@H]1O[C@@H](n2ccc(=O)[nH]c2=O)[C@H](OC(C)=O)[C@@H]1OC(C)=O [Uridine triacetate, 2′,3′,5′-Tri-O-acetyluridine]",seizure frequency,[1],decreases further
same,solubility in water,[2],approximately 10 milligrams per milliliter
